Results: patent US11000033B2, “Ketone or oxime compound, and herbicide” (NISSAN CHEMICAL CORPORATION, priority 2014, dated 2021)

What was measured:
Format in all cases: in vivo
[1] = system: Scirpus juncoides; assay: Test Example 1: herbicidal activity, application before weed generation in submerged conditions (symbol B); conditions: application herbicide amount 320 g/ha
Outline: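 In a flooded pot test with alluvial soil, the emulsion-formulated compound was diluted with water to a predetermined amount and applied to the floodwater immediately on the sowing day. Pots were held in a greenhouse at 25–30 °C for 3 weeks before each weed was rated.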

[2] = system: Monochoria vaginalis; assay: Test Example 2: herbicidal activity, application during weed generation in submerged conditions (symbol C); conditions: Table 23; application herbicide amount 320 g/ha; grade 0-5 by criteria of Test Example 1
Outline: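 Each pot contained alluvial soil under 4 cm of water with seeds of all three weeds sown together. Following growth at 25° C. to 30° C. to the one- to two-leaf stage, the floodwater received diluted emulsion at a predetermined amount; visual assessment followed at 3 weeks.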

[3] = system: Setaria viridis; assay: Test Example 4: herbicidal effect by soil treatment (symbol G); conditions: application herbicide amount 320 g/ha
Outline: (§1)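 Seeds were sown in sterilized diluvial soil, covered with about 1.5 cm of soil, and the soil surface was sprayed with a water-diluted emulsion of the compound at a predetermined rate. Plants grew in a greenhouse at 25° C. to 30° C.; effects were scored visually 3 weeks after application.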

[4] = system: Avena fatua; assay: Test Example 4: herbicidal effect by soil treatment (symbol I); conditions: application herbicide amount 320 g/ha
Outline: as §1

[5] = system: Apera spica-venti; assay: Test Example 4: herbicidal effect by soil treatment (symbol L); conditions: application herbicide amount 320 g/ha
Outline: as §1

[6] = system: rice; assay: Test Example 4: effect on crop by soil treatment (symbol b); conditions: application herbicide amount 320 g/ha
Outline: (§2)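 Soil-treatment setup: crop and weed seeds were spot-sown into sterilized diluvial soil, then buried beneath approximately 1.5 cm of it, and the boxes were housed in a 25–30° C. greenhouse.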

[7] = system: rapeseed; assay: Test Example 4: effect on crop by soil treatment (symbol g); conditions: application herbicide amount 320 g/ha
Outline: as §2

[8] = system: Digitaria ciliaris; assay: Test Example 5: herbicidal effect by foliage application, plastic box (symbol F); conditions: 320 g/ha, 3 weeks after application
Outline: (§3)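 Emulsion formulation, diluted with water to the intended rate, was applied uniformly to leaves by small sprayer. Recipients were 14-day greenhouse-grown seedlings (25° C. to 30° C.). Assessment followed at 3 weeks.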

[9] = system: Setaria viridis; assay: Test Example 5: herbicidal effect by foliage application, plastic box (symbol G); conditions: 320 g/ha, 3 weeks after application
Outline: as §3

[10] = system: Echinochloa crus-galli var. crus-galli; assay: Test Example 5: herbicidal effect by foliage application, plastic box (symbol H); conditions: 320 g/ha, 3 weeks after application
Outline: as §3

[11] = system: Avena fatua; assay: Test Example 5: herbicidal effect by foliage application, plastic box (symbol I); conditions: 320 g/ha, 3 weeks after application
Outline: as §3

[12] = system: Apera spica-venti; assay: Test Example 5: herbicidal effect by foliage application, plastic box (symbol L); conditions: 320 g/ha, 3 weeks after application
Outline: as §3

[13] = system: Abutilon theophrasti; assay: Test Example 5: herbicidal effect by foliage application, plastic box (symbol M); conditions: 320 g/ha, 3 weeks after application
Outline: as §3

[14] = system: soybean; assay: Test Example 5: effect on crop by foliage application, plastic box (symbol d); conditions: 320 g/ha, 3 weeks after application
Outline: (§4)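 A greenhouse held between 25° C. and 30° C. was used to grow plants sown spot-wise, beneath ~1.5 cm of soil, in boxes of sterilized diluvial soil.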

[15] = system: rapeseed; assay: Test Example 5: effect on crop by foliage application, plastic box (symbol g); conditions: 320 g/ha, 3 weeks after application
Outline: as §4

[16] = system: Veronica persica; assay: Test Example 5: herbicidal effect by foliage application, plastic box (symbol R); conditions: 320 g/ha, 3 weeks after application
Outline: as §3

Structure (SMILES): CON=C(C)CC1CC(OC(=O)CCC2CCCCC2)=C(c2c(C)cc(C)cc2C)C1=O (stereo not drawn) [1-035]
- Herbicidal effect grade, B: Scirpus juncoides [1]: 5 (Herbicidal ratio of 90% or more (almost completely withered))
- Herbicidal effect grade, C: Monochoria vaginalis [2]: 4 (Herbicidal ratio of 70% or higher and lower than 90%)
- G (Setaria viridis) herbicidal effect grade [3]: 5 (Herbicidal ratio of 90% or more (almost completely withered))
- I (Avena fatua) herbicidal effect grade [4]: 4 (Herbicidal ratio of 70% or higher and lower than 90%)
- L (Apera spica-venti) herbicidal effect grade [5]: 5 (Herbicidal ratio of 90% or more (almost completely withered))
- b (directly sowed rice plant) effect on crop grade [6]: 5 (Herbicidal ratio of 90% or more (almost completely withered))
- g (rapeseed) effect on crop grade [7]: 5 (Herbicidal ratio of 90% or more (almost completely withered))
- F: Digitaria ciliaris, herbicidal effect grade [8]: 5 (Herbicidal ratio of 90% or more (almost completely withered))
- G: Setaria viridis, herbicidal effect grade [9]: 5 (Herbicidal ratio of 90% or more (almost completely withered))
- H: Echinochloa crus-galli var. crus-galli, herbicidal effect grade [10]: 5 (Herbicidal ratio of 90% or more (almost completely withered))
- I: Avena fatua, herbicidal effect grade [11]: 5 (Herbicidal ratio of 90% or more (almost completely withered))
- L: Apera spica-venti, herbicidal effect grade [12]: 5 (Herbicidal ratio of 90% or more (almost completely withered))
- M: Abutilon theophrasti, herbicidal effect grade [13]: 4 (Herbicidal ratio of 70% or higher and lower than 90%)
- d: soybean, effect on crop grade [14]: 4 (Herbicidal ratio of 70% or higher and lower than 90%)
- g: rapeseed, effect on crop grade [15]: 4 (Herbicidal ratio of 70% or higher and lower than 90%)

Structure (SMILES): CON=C(C)CC1CC(OC(=O)COc2ccc(Cl)cc2Cl)=C(c2c(C)cc(C)cc2C)C1=O (stereo not drawn) [1-075]
- Herbicidal effect grade, B: Scirpus juncoides [1]: 4 (Herbicidal ratio of 70% or higher and lower than 90%)
- G (Setaria viridis) herbicidal effect grade [3]: 5 (Herbicidal ratio of 90% or more (almost completely withered))
- L (Apera spica-venti) herbicidal effect grade [5]: 5 (Herbicidal ratio of 90% or more (almost completely withered))
- b (directly sowed rice plant) effect on crop grade [6]: 5 (Herbicidal ratio of 90% or more (almost completely withered))
- F: Digitaria ciliaris, herbicidal effect (criteria 0-5) [8]: 5 (Herbicidal ratio of 90% or more (almost completely withered))
- G: Setaria viridis, herbicidal effect (criteria 0-5) [9]: 5 (Herbicidal ratio of 90% or more (almost completely withered))
- H: Echinochloa crus-galli var. crus-galli, herbicidal effect (criteria 0-5) [10]: 5 (Herbicidal ratio of 90% or more (almost completely withered))
- I: Avena fatua, herbicidal effect (criteria 0-5) [11]: 5 (Herbicidal ratio of 90% or more (almost completely withered))
- L: Apera spica-venti, herbicidal effect (criteria 0-5) [12]: 5 (Herbicidal ratio of 90% or more (almost completely withered))
- M: Abutilon theophrasti, herbicidal effect (criteria 0-5) [13]: 4 (Herbicidal ratio of 70% or higher and lower than 90%)
- R: Veronica persica, herbicidal effect (criteria 0-5) [16]: 0 (Herbicidal ratio of 5% or lower (almost no effect))
- d: soybean, effect on crop (criteria 0-5) [14]: 1 (Herbicidal ratio of 5% or higher and lower than 20%)
